Experimental data taken from ChEMBL document CHEMBL3877294, “Discovery of Ruzasvir (MK-8408): A Potent, Pan-Genotype HCV NS5A Inhibitor with Optimized Activity against Common Resistance-Associated Polymorphisms” (J Med Chem, 2017).
Residue numbers refer to the chain shown, from its start.

What was measured:
Huh-7 [1] = experiment: Inhibition of HCV genotype-2b NS5A harboring methionine at position 31 infected in human HuH7 cells by luciferase reporter gene assay; format: cell-based; conditions: Hepatitis C virus subtype 2b
[2] = test system: Nonstructural protein 5A (Hepatitis C virus), Q5L478 [UNDEFINED MUTATION]; experiment: Inhibition of HCV genotype-1a NS5A L31V mutant infected in human HuH7 cells by luciferase reporter gene assay; format: cell-based; conditions: Hepatitis C virus subtype 1a; Huh-7
[3] = Selectivity ratio for EC90 for HCV genotype-4a NS5A to EC90 for HCV genotype-1a NS5A
Huh-7 [4] = experiment: Inhibition of HCV genotype-4a NS5A infected in human HuH7 cells by luciferase reporter gene assay; format: cell-based; conditions: Hepatitis C virus subtype 4a
[5] = Selectivity ratio for EC90 for HCV genotype-2b NS5A harboring methionine at position 31 to EC90 for HCV genotype-1a NS5A
[6] = Drug uptake in dog at 5 mg/kg, po measured at 24 hrs post dose by LC/MS method; format: ADME, organism-based, Canis lupus familiaris; conditions: in vivo, read-out: Drug uptake
[7] = Half life in dog at 1 mg/kg, iv by LC/MS method; format: ADME, organism-based, Canis lupus familiaris; conditions: in vivo
[8] = test system: T1, Nonstructural protein 5A (Hepatitis C virus), Q5L478 [Y93H]; experiment: Inhibition of HCV genotype-1a NS5A Y93H mutant infected in human HuH7 cells by luciferase reporter gene assay; format: cell-based; conditions: Hepatitis C virus subtype 1a; Huh-7
T1 sequence (whole entry): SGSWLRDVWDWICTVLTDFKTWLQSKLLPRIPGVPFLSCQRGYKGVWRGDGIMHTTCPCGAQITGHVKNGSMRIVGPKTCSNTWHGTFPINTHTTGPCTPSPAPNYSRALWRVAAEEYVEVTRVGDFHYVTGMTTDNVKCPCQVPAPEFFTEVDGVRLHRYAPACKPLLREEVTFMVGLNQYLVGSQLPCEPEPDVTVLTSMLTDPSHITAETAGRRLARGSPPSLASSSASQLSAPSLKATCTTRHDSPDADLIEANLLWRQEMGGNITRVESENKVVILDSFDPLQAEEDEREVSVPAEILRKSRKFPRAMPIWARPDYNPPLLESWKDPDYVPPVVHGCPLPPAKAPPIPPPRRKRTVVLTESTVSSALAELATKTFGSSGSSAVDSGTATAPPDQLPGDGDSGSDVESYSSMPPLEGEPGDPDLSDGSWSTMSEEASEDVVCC

Huh-7 [9] = experiment: Inhibition of HCV genotype-1a NS5A infected in human HuH7 cells by luciferase reporter gene assay; format: cell-based; conditions: Hepatitis C virus subtype 1a
[10] = Drug uptake in rat at 10 mg/kg, po measured at 24 hrs post dose by LC/MS method; format: ADME, organism-based; conditions: in vivo, read-out: Drug uptake
[11] = test system: Hepatitis C virus subtype 1a; experiment: Selectivity ratio for EC90 for HCV genotype-1a NS5A Y93H mutant to EC90 for HCV genotype-1a NS5A
Huh-7 [12] = experiment: Inhibition of HCV genotype-3a NS5A infected in human HuH7 cells by luciferase reporter gene assay; format: cell-based; conditions: Hepatitis C virus subtype 3a
[13] = Oral bioavailability in rat at 10 mg/kg measured after 24 hrs by LC/MS method; format: ADME, organism-based; conditions: in vivo
[14] = Half life in rat at 2 mg/kg, iv by LC/MS method; format: ADME, organism-based; conditions: in vivo
[15] = AUC (0 to t) in dog at 5 mg/kg, po measured after 24 hrs by LC/MS method; format: ADME, organism-based, Canis lupus familiaris; parameters: time < 24 hr, dose 5 mg/kg, route oral; conditions: in vivo
[16] = Oral bioavailability in dog at 5 mg/kg measured after 24 hrs by LC/MS method; format: ADME, organism-based, Canis lupus familiaris; conditions: in vivo
[17] = Selectivity ratio for EC90 for HCV genotype-3a NS5A to EC90 for HCV genotype-1a NS5A
[18] = Plasma clearance in rat at 2 mg/kg, iv measured after 24 hrs by LC/MS method; format: ADME, organism-based
[19] = AUC in rat at 10 mg/kg, po measured after 24 hrs by LC/MS method; format: ADME, organism-based; parameters: time < 24 hr, dose 10 mg/kg, route oral; conditions: in vivo
[20] = Plasma clearance in dog at 1 mg/kg, iv measured after 24 hrs by LC/MS method; format: ADME, organism-based, Canis lupus familiaris
[21] = test system: Hepatitis C virus subtype 1a; experiment: Selectivity ratio for EC90 for HCV genotype-1a NS5A L31V mutant to EC90 for HCV genotype-1a NS5A
[22] = test system: Nonstructural protein 5A (Hepatitis C virus), Q5L478 [UNDEFINED MUTATION]; experiment: Inhibition of HCV genotype-1a NS5A Q30R mutant infected in human HuH7 cells by luciferase reporter gene assay; format: cell-based; conditions: Hepatitis C virus subtype 1a; Huh-7
[23] = test system: T2, Nonstructural protein 5A (Hepatitis C virus), Q5L478 [Y93C]; experiment: Inhibition of HCV genotype-1a NS5A Y93C mutant infected in human HuH7 cells by luciferase reporter gene assay; format: cell-based; conditions: Hepatitis C virus subtype 1a; Huh-7
T2 sequence (whole entry): T1 sequence (whole entry) with H93C

Huh-7 [24] = experiment: Inhibition of HCV genotype-6d NS5A infected in human HuH7 cells by luciferase reporter gene assay; format: cell-based; conditions: Hepatitis C virus subtype 6d
Huh-7 [25] = experiment: Inhibition of HCV genotype-1b NS5A infected in human HuH7 cells by luciferase reporter gene assay; format: cell-based; conditions: Hepatitis C virus subtype 1b
Huh-7 [26] = experiment: Inhibition of HCV genotype-2a NS5A infected in human HuH7 cells by luciferase reporter gene assay; format: cell-based; conditions: Hepatitis C virus subtype 2a
Huh-7 [27] = experiment: Inhibition of HCV genotype-6 NS5A infected in human HuH7 cells by luciferase reporter gene assay; format: cell-based; conditions: Hepatitis C virus genotype 6
Huh-7 [28] = experiment: Inhibition of HCV genotype-5a NS5A infected in human HuH7 cells by luciferase reporter gene assay; format: cell-based; conditions: Hepatitis C virus subtype 5a
[29] = test system: T1, Nonstructural protein 5A (Hepatitis C virus), Q5L478 [Y93H]; experiment: Inhibition of HCV genotype-1b NS5A Y93H mutant infected in human HuH7 cells by luciferase reporter gene assay; format: cell-based; conditions: Hepatitis C virus subtype 1b; Huh-7
[30] = AUC (0 to t) in rat at 10 mg/kg, po measured after 24 hrs by LC/MS method; format: ADME, organism-based; parameters: dose 10 mg/kg, time < 24 hr, route oral; conditions: in vivo
[31] = AUC (0 to t) in rhesus monkey at 5 mg/kg, po measured after 48 hrs by LC/MS/MS method; format: ADME, organism-based, Macaca mulatta; parameters: dose 5 mg/kg, time < 48 hr, route oral; conditions: in vivo
[32] = Plasma clearance in rhesus monkey at 1 mg/kg, iv measured after 48 hrs by LC/MS/MS method; format: ADME, organism-based, Macaca mulatta
[33] = Oral bioavailability in rhesus monkey at 5 mg/kg measured at 48 hrs post dose by LC/MS/MS method; format: ADME, organism-based, Macaca mulatta; conditions: in vivo
[34] = Half life in rhesus monkey at 1 mg/kg, iv by LC/MS/MS method; format: ADME, organism-based, Macaca mulatta; conditions: in vivo

SMILES	EC90 (Huh-7 [1]) [nM]	EC90 [2] [nM]	Selectivity ratio [3]	EC90 (Huh-7 [4]) [nM]	Selectivity ratio [5]	concentration at 24 h [6] [nM]	half-life [7] [h]	EC90 [8] [nM]	EC90 (Huh-7 [9]) [nM]	concentration at 24 h [10] [nM]	Selectivity ratio [11]	EC90 (Huh-7 [12]) [nM]	bioavailability [13] [%]	half-life [14] [h]	AUC(0-t) at 24 h [15] [µM·h]	bioavailability [16] [%]	Selectivity ratio [17]	clearance [18] [mL/min/kg]	AUC at 24 h [19] [µM·h]	clearance [20] [mL/min/kg]	also measured
CCc1ccc([C@@H]2Oc3cc(-c4cnc([C@@H]5CCCN5C(=O)[C@@H](NC(=O)OC)C(C)C)[nH]4)cc(F)c3-c3cc4cc(-c5cnc([C@@H]6CCCN6C(=O)[C@@H](NC(=O)OC)C(C)C)[nH]5)ccc4n32)s1	0.9	0.067	1	0.003	300	172	15	0.06	0.003	17	20	0.002	3	6.4	13.8	21	1	8	0.7	1.7	Selectivity ratio [21]: 22
COC(=O)N[C@H](C(=O)N1CCC[C@H]1c1ncc(-c2cc(F)c3c(c2)O[C@@H](c2cnc(C4CC4)s2)n2c-3cc3cc(-c4cnc([C@@H]5CCCN5C(=O)[C@@H](NC(=O)OC)C(C)C)[nH]4)ccc32)[nH]1)C(C)C [RUZASVIR]	0.036	0.016	2	0.007 to 0.011	12	43	4	0.067	0.003	3	22	0.006 to 0.007	4	4.7	12.9	22	2	13	0.4	1.6	EC90 [22]: 0.011 nM; EC90 [23]: 0.002 nM; EC90 (Huh-7 [24]): 0.027 nM; EC90 (Huh-7 [25]): 0.003 nM; EC90 (Huh-7 [26]): 0.001 nM; EC90 (Huh-7 [27]): 0.007 nM; Selectivity ratio [21]: 5; EC90 (Huh-7 [28]): 0.001 nM; EC90 [29]: 0.009 nM
COC(=O)N[C@H](C(=O)N1CCC[C@H]1c1ncc(-c2cc(F)c3c(c2)OC(c2ccc(C4CC4)s2)n2c-3cc3cc(-c4cnc([C@@H]5CCCN5C(=O)[C@@H](NC(=O)OC)C(C)C)[nH]4)ccc32)[nH]1)C(C)C (stereo not given in full)	0.16	0.02	3	0.009	53 to 200	134	10	0.11	0.003	16	37	0.007	5	7	10.6	11	2	11	1.1	1.5	–
COC(=O)N[C@H](C(=O)N1CCC[C@H]1c1ncc(-c2cc(F)c3c(c2)OC(c2cnc(C4CC4)s2)n2c-3cc3cc(-c4cnc([C@@H]5C[C@H]6C[C@H]6N5C(=O)[C@@H](NC(=O)OC)C(C)C)[nH]4)ccc32)[nH]1)C(C)C (stereo not given in full)	0.076	0.007	–	0.006	–	–	–	0.021	0.006	1.9	–	0.011	4	3.9	–	–	–	12	–	–	AUC(0-t) at 24 h [30]: 0.52 µM·h
COC(=O)N[C@H](C(=O)N1CCC[C@H]1c1ncc(-c2cc(F)c3c(c2)OC(c2cccs2)n2c-3cc3cc(-c4cnc([C@@H]5CCCN5C(=O)[C@@H](NC(=O)OC)C(C)C)[nH]4)ccc32)[nH]1)C(C)C (mixture of isomers)	8 to 8.2	0.76	–	–	267	–	–	3 to 3.4	0.03	–	100	0.016	–	–	–	–	–	–	–	–	–
COC(=O)N[C@H](C(=O)N1CCC[C@H]1c1ncc(-c2cc(F)c3c(c2)OC(c2cc(C(C)C)no2)n2c-3cc3cc(-c4cnc([C@@H]5CCCN5C(=O)[C@@H](NC(=O)OC)C(C)C)[nH]4)ccc32)[nH]1)C(C)C (stereo not given in full)	0.92	0.056	–	–	–	–	–	0.42	0.002	–	–	0.019	–	–	–	–	–	–	–	–	AUC(0-t) at 48 h [31]: 3.9 µM·h; clearance [32]: 2.2 mL/min/kg; bioavailability [33]: 10%; half-life [34]: 10.2 h
COC(=O)N[C@H](C(=O)N1CCC[C@H]1c1nc(-c2ccc3c(c2)O[C@@H](c2ccccc2)n2c-3cc3cc(-c4c[nH]c([C@@H]5CCCN5C(=O)[C@@H](NC(=O)OC)C(C)C)n4)ccc32)c[nH]1)C(C)C	11	–	–	0.016	–	–	–	–	0.006	–	–	0.12	–	–	–	–	–	–	–	–	EC90 [22]: 2.5 nM; EC90 [23]: 1.1 nM; EC90 (Huh-7 [24]): 0.008 nM; EC90 (Huh-7 [25]): 0.006 nM; EC90 (Huh-7 [26]): 0.019 nM; EC90 (Huh-7 [27]): 0.017 nM; EC90 (Huh-7 [28]): 0.002 nM; EC90 [29]: 0.89 nM
CCCc1ncc(C2Oc3cc(-c4cnc([C@@H]5CCCN5C(=O)[C@@H](NC(=O)OC)C(C)C)[nH]4)cc(F)c3-c3cc4cc(-c5cnc([C@@H]6CCCN6C(=O)[C@@H](NC(=O)OC)C(C)C)[nH]5)ccc4n32)s1 (stereo not given in full)	0.14	0.02	10	0.01	140	76.7	11.5	0.088	0.001	4	88	0.002	7	4.3	11	23	2	16	0.8	1.8	Selectivity ratio [21]: 20
COC(=O)N[C@H](C(=O)N1CCC[C@H]1c1ncc(-c2cc(F)c3c(c2)O[C@@H](c2ccc4c(c2)OCCC4)n2c-3cc3cc(-c4cnc([C@@H]5CCCN5C(=O)[C@@H](NC(=O)OC)C(C)C)[nH]4)ccc32)[nH]1)C(C)C	0.3	–	–	–	100	–	–	0.5	0.003	–	167	–	–	–	–	–	–	–	–	–	–
